Laboratory results: patent publication US20260184663A1, “INDENE COMPOUNDS, PHARMACEUTICAL COMPOSITIONS THEREOF, AND THEIR THERAPEUTIC APPLICATIONS” (NucMito Pharmaceuticals co. Ltd., priority 2022, published 2026)

Columns and labels:
Format in all cases: cell-based
[1] = system: A549 (lung adenocarcinoma); assay: Antiproliferative activity (CCK-8 cell viability), A549; details: Homo sapiens, 72 h, read-out: Antiproliferative activity in cancerous cells, A549 (inhibition of cell growth); for inhibition at 3.3 µM: Compound concentration: 3.3 μM; for inhibition at 10 µM: Compound concentration: 10 μM
In short: (§1)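 Cells grown in DMEM (HepG2, SW480), MEM (HeLa) or F-12K (A549), each with 10% FBS, then exposed to compound at 3.3, 10 or 30 μM for 72 h at 37 °C. CCK-8 absorbance at 450 nm; viability expressed as percent of DMSO-treated cells, graded as growth inhibition bands.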

HepG2 (liver cancer) = assay: Antiproliferative activity (CCK-8 cell viability), HepG2; details: Homo sapiens, 72 h, read-out: Antiproliferative activity in cancerous cells, HepG2 (inhibition of cell growth); for inhibition at 3.3 µM: Compound concentration: 3.3 μM; for inhibition at 10 µM: Compound concentration: 10 μM
In short: as §1

HeLa (cervical cancer) = assay: Antiproliferative activity (CCK-8 cell viability), HeLa; details: Homo sapiens, 72 h, read-out: Antiproliferative activity in cancerous cells, HELA (inhibition of cell growth); for inhibition at 3.3 µM: Compound concentration: 3.3 μM; for inhibition at 10 µM: Compound concentration: 10 μM
In short: as §1

[2] = system: B16F10 (malignant melanoma); assay: Antiproliferative activity (CCK-8 cell viability), B16F10; details: Mus musculus, 72 h, read-out: Antiproliferative activity in cancerous cells, B16F10 (inhibition of cell growth); for inhibition at 3.3 µM: B16-F10, Compound concentration: 3.3 μM; for inhibition at 10 µM: B16-F10, Compound concentration: 10 μM
In short: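 B16F10 melanoma cells grown in DMEM with 10% FBS were plated in 96-well plates at 2,000-5,000 cells/well. After attachment they were exposed to compound in medium for 72 h at 37° C. CCK-8 solution (10 μL) was then added, and after 4 h at 37° C absorbance was read at 450 nm.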

[3] = system: MDA-MB-231 (breast cancer); assay: Antiproliferative activity (CCK-8 cell viability), MDA-MB-231; details: Homo sapiens, 72 h, read-out: Antiproliferative activity in cancerous cells, MDA-MB-231 (inhibition of cell growth); for inhibition at 3.3 µM: Compound concentration: 3.3 μM; for inhibition at 10 µM: Compound concentration: 10 μM
In short: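 MDA-MB-231 breast cancer cells, grown in DMEM with 10% FBS, were plated in 96-well plates at 2,000-5,000 cells/well. Once attached, they were exposed to compound and incubated at 37° C. for 72 h. Viability was then measured with CCK-8 (10 μL per well, 4 h at 37° C.) by absorbance at 450 nm, relative to DMSO vehicle wells.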

SW480 (colon cancer) = assay: Antiproliferative activity (CCK-8 cell viability), SW480; details: Homo sapiens, 72 h, read-out: Antiproliferative activity in cancerous cells, SW480 (inhibition of cell growth); for inhibition at 3.3 µM: Compound concentration: 3.3 μM; for inhibition at 10 µM: Compound concentration: 10 μM
In short: as §1

[4] = system: A431 (epidermoid carcinoma); assay: Antiproliferative activity (CCK-8 cell viability), A431; details: Homo sapiens, 72 h; for inhibition at 3.3 µM: A-431, Compound concentration: 3.3 μM; for inhibition at 3.3 µM / inhibition at 10 µM: read-out: Antiproliferative activity in cancerous cells, A431 (inhibition of cell growth); for inhibition at 10 µM: A-431, Compound concentration: 10 μM; for inhibition at 30 µM: A-431, Compound concentration: 30 μM, read-out: Antiproliferative activity in cancerous cells, A431
In short: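 A431 epidermoid carcinoma cells grown in DMEM with 10% FBS were plated at 2,000-5,000 cells/well in 96-well plates. After attachment they were exposed to compound at 3.3 μM, 10 μM, or 30 μM for 72 h at 37° C. Viability was then assessed by CCK-8 against DMSO vehicle-treated wells.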

SMILES	inhibition at 3.3 µM [1] [%]	inhibition at 10 µM [1] [%]	inhibition at 3.3 µM (HepG2 (liver cancer)) [%]	inhibition at 10 µM (HepG2 (liver cancer)) [%]	inhibition at 3.3 µM (HeLa (cervical cancer)) [%]	inhibition at 10 µM (HeLa (cervical cancer)) [%]	inhibition at 3.3 µM [2] [%]	inhibition at 10 µM [2] [%]	inhibition at 3.3 µM [3] [%]	inhibition at 10 µM [3] [%]	inhibition at 3.3 µM (SW480 (colon cancer)) [%]	inhibition at 10 µM (SW480 (colon cancer)) [%]	inhibition at 3.3 µM [4] [%]	inhibition at 10 µM [4] [%]	inhibition at 30 µM [4] [%]
CC1=C(CC(=O)O)c2cc(F)ccc2/C1=C\c1cccc(C[S+]([O-])c2ccc(F)cc2)c1 (centres unmarked) [B50, (Z)-2-(5-Fluoro-1-(3-(((4-fluorophenyl)sulfinyl)methyl)benzylidene)-2-methyl-1H-inden-3-yl)acetic acid]	< 30	< 30	< 30	< 30	< 30	30 to 50	≥ 50	≥ 50	30 to 50	≥ 50	< 30	30 to 50	< 30	< 30	30 to 50
CC1=C(CC(=O)O)c2cc(Br)ccc2/C1=C\c1ccc(Oc2ccc(Cl)cc2)cc1 [C77, (Z)-2-(5-Bromo-1-(4-(4-chlorophenoxy)benzylidene)-2-methyl-1H-inden-3-yl)acetic acid]	< 30	≥ 50	30 to 50	≥ 50	≥ 50	≥ 50	≥ 50	≥ 50	≥ 50	≥ 50	< 30	30 to 50	< 30	< 30	–
CC1=C(CC(=O)O)c2cc(F)ccc2/C1=C\c1ccc([S+]([O-])c2ccc(F)cc2)cc1 (centres unmarked) [C45, (Z)-2-(5-Fluoro-1-(4-((4-fluorophenyl)sulfinyl)benzylidene)-2-methyl-1H-inden-3-yl)acetic acid]	< 30	30 to 50	< 30	< 30	< 30	≥ 50	≥ 50	≥ 50	30 to 50	≥ 50	< 30	30 to 50	< 30	< 30	< 30
CCc1ccc2c(c1)/C(=C\c1ccc(COCc3ccc(F)cc3)cc1)C(C)=C2CC(=O)O [B121, (Z)-2-(6-Ethyl-1-(4-(((4-fluorobenzyl)oxy)methyl)benzylidene)-2-methyl-1H-inden-3-yl)acetic acid]	30 to 50	≥ 50	< 30	≥ 50	< 30	≥ 50	30 to 50	30 to 50	< 30	< 30	< 30	30 to 50	≥ 50	≥ 50	–
CC1=C(CC(=O)O)c2cc(Br)ccc2/C1=C\c1cccc(Oc2ccc(Cl)cc2)c1 [C108, (Z)-2-(5-Bromo-1-(3-(4-chlorophenoxy)benzylidene)-2-methyl-1H-inden-3-yl)acetic acid]	< 30	≥ 50	< 30	≥ 50	< 30	≥ 50	≥ 50	≥ 50	≥ 50	≥ 50	< 30	30 to 50	≥ 50	≥ 50	–
CC1=C(CC(=O)O)c2cc(F)ccc2/C1=C\c1cccc(CSc2ccc(F)cc2)c1 [B49, (Z)-2-(5-Fluoro-1-(3-(((4-fluorophenyl)thio)methyl)benzylidene)-2-methyl-1H-inden-3-yl)acetic acid]	< 30	30 to 50	< 30	≥ 50	< 30	≥ 50	≥ 50	≥ 50	≥ 50	≥ 50	< 30	≥ 50	< 30	30 to 50	–
